{"source": "paper PMC7539200", "about": "“Glufosinate constrains synchronous and metachronous metastasis by promoting anti‐tumor macrophages” (EMBO Molecular Medicine, 2020)", "key": {"[1]": {"biological_target": "T1, human glutamine synthetase (hGS) (Homo sapiens, UniProt P15104)", "T1 construct": "gene GLUL", "T1 sequence (P15104 2-373)": "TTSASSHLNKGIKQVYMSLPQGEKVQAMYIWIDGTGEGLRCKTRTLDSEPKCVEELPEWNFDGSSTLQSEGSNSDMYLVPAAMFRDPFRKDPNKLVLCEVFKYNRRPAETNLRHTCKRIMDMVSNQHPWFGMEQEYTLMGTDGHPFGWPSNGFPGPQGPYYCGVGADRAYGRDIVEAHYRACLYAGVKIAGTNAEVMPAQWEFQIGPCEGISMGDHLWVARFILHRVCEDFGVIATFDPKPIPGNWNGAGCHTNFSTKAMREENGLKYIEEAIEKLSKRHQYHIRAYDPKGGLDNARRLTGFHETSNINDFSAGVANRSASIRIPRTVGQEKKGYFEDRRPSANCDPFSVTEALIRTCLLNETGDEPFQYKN", "test": "microtiter phosphate-release GS activity assay, Lineweaver-Burk and secondary plot; IC50 […]", "format": "biochemical"}, "[2]": {"biological_target": "T1, human glutamine synthetase (hGS)", "test": "microtiter phosphate-release GS activity assay, Lineweaver-Burk and secondary plot; IC50 […]", "format": "biochemical", "remark": "listed apart in the source"}}, "note": "Read-outs that look alike come from different tables or passages of the source.", "data": [{"smiles": "CP(=O)(O)CCC(N)C(=O)O", "note": "(centres unmarked) [Glufosinate]", "values": [{"measurement": "Ki", "setting": "[1]", "result": "~19.5", "unit": "µM"}]}, {"smiles": "CS(=N)(=O)CCC(N)C(=O)O", "note": "(centres unmarked) [Methionine sulfoximine]", "values": [{"measurement": "Ki", "setting": "[2]", "result": 880, "unit": "µM"}]}]}
